Results from patent publication US10451536B2, “Method and apparatus for multi-parameter data analysis” (GE HEALTHCARE UK LIMITED, priority 2009, dated 2019).

Test system: CHO-K1 cells
Assay: High-content screening of nuclear morphology in CHO-K1 cells treated with Mitomycin C, with KS distance analysis
Format: cell-based
Experimental: CHO-K1 cells were seeded into a GE Healthcare 96 well MatriPlate at 6000 cells/well in Ham's F12 media supplemented with 5% EBS and incubated under standard tissue culture conditions for 24 hours. Mitomycin C (MMC) solutions were added in culture media to provide final concentrations in the assay of […] and cells incubated for a further 48 hours. Media was removed from wells and cells washed once with […] phosphate buffered saline (PBS), followed by fixation in ethanol for 30 minutes at room temperature. Nuclei were stained with […] HOECHST™ 33342 (Sigma) at room temperature for 15 minutes and cells washed with […] PBS.
Cells were imaged by a GE Healthcare INCELL ANALYZER 1000™ using v3.5 acquisition software (available from GE Healthcare) with a 20× objective. Images were acquired using on-line cell counting to acquire a minimum of 1000 cells/well. Images were analysed for nuclear area, length, perimeter and weighted moment of inertia (WMOI) using GE INCELL INVESTIGATOR™ software (available from GE Healthcare).
Four nuclear morphology parameters were abstracted from images using automated image analysis and data from replicate samples exposed to the same concentrations of MMC combined to yield population distribution histograms for each of the four parameters as shown in FIGS. 7 to 10. In each of FIGS. 7 to 10 the data in panel 1 is from control cells, and the data in panels 2-12 from MMC treated cells across the range of 0.01 μM-10 μM MMC.
KS distance analysis of the data using intra-sample measurements (i.e. calculation of the KS distance between cell data in the absence of MMC and cell data at a given concentration of MMC across the range 0.01 μM-10 μM) was performed and the resulting data shown in FIG. 11.
Inter-sample KS distances were calculated for all six possible parameter pairings (Area-Length; Area-WMOI; Length-WMOI; Area-Perimeter; Length-Perimeter; Perimeter-WMOI) by calculation of KS distance between data distributions for two parameters at the same MMC concentration. In order to perform KS distance measures on the different parameters of which had variant dimensions, parameter values were normalized (Pnorm) to a range from 0-1 using the function: […]

[1] = CHO-K1 cells, same MMC concentration, normalized parameters, FIG. 12

For CO[C@@]12[C@H](COC(N)=O)C3=C(C(=O)C(C)=C(N)C3=O)N1C[C@@H]1N[C@@H]12 [MMC, Mitomycin C], the “Nuclear size, shape and morphology in representative HCS images” value (CHO-K1 cells, 0, 0.16 and 2.5 μM MMC, 48 hours, HOECHST 33342 nuclear stain, FIG. 6) was “Changes in nuclear size, shape and morphology are clearly visible”, the “Intra-sample KS distance relative to untreated cells (nuclear area, length, perimeter, WMOI)” value (CHO-K1 cells, 0.01 μM-10 μM MMC, FIG. 11) was “clear dose-dependent increase in KS distances for all four measured parameters” and the “Micronuclei formation (higher magnification view)” value (CHO-K1 cells, 0.16 μM MMC, FIG. 6 image B inset) was “nuclei with associated micronuclei arising from clastogenic DNA damage”. The “Inter-sample KS distance Area and perimeter (A-W)” value [1] was “low KS inter-sample distance at low and high MMC concentrations with an increase in KS distance at intermediate concentrations”, the “Inter-sample KS distance Area-Length (A-L)” value [1] was “constant low KS distance across the entire MMC concentration range” and the “Inter-sample KS distance Length-WMOI (L-W)” value [1] was “constant high KS distance over most of the MMC concentration range”. The “Inter-sample KS distance Perimeter-WMOI (P-W)” value [1] was “decreases with MMC concentration”.
